Columns and labels:
[1] = molecular target: T1, Alpha-2C adrenergic receptor (Rattus norvegicus, UniProt P22086)
T1 sequence (P22086 whole entry): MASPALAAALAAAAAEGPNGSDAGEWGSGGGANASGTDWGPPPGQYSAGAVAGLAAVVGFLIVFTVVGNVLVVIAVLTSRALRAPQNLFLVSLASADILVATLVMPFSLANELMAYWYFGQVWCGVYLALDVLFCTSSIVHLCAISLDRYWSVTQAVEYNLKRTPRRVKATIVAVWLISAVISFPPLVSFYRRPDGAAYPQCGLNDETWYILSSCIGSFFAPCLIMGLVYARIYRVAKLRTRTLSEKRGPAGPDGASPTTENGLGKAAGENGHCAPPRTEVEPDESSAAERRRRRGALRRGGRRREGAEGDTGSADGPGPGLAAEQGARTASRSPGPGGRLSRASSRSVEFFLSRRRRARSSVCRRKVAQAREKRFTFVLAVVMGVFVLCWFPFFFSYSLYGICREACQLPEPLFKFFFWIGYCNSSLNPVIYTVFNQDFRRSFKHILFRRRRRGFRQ

[2] = molecular target: T2, Muscarinic acetylcholine receptor M2 (Rattus norvegicus, UniProt P10980)
T2 sequence (P10980 whole entry): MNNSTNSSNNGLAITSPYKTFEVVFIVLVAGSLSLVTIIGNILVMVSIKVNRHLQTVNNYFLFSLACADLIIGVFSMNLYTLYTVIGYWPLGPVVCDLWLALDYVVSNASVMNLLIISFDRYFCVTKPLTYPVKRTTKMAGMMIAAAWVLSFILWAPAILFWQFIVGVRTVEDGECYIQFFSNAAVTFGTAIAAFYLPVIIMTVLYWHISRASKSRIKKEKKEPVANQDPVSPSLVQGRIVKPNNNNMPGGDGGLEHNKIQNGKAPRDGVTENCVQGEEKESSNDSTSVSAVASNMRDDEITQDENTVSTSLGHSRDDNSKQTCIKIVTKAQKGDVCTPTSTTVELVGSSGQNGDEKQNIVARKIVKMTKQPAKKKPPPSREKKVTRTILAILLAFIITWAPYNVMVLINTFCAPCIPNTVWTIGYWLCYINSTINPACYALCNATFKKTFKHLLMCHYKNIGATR

Histamine H1 receptor = Histamine H1 receptor (Rattus norvegicus, UniProt P31390)
Sequence of Histamine H1 receptor (P31390 whole entry): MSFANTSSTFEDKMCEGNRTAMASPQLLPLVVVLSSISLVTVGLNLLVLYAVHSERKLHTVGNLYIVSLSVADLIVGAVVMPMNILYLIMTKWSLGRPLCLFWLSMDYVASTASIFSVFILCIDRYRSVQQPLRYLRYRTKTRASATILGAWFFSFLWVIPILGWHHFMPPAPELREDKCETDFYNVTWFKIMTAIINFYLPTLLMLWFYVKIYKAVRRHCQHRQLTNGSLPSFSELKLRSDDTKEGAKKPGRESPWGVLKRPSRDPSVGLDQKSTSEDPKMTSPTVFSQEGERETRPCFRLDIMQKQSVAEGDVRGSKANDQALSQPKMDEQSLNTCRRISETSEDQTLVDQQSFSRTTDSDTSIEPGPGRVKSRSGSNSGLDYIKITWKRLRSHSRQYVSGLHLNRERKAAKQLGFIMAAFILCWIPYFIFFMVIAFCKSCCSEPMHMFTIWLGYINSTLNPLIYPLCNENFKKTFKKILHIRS

Row | SMILES | Ki [1] [µM] | Ki [2] [µM] | Ki (Histamine H1 receptor) [µM]
1 | CN(C)C[C@@H]1C2CCC(CC2)[C@@H]1c1ccc(Cl)c(Cl)c1 [CAS_62373-97-1] | > 10 | – | 2
2 | CNCCCN1c2ccccc2CCc2ccccc21 [Desmethylimipramine] | 9.2 | 0.6 | –
3 | CNCCC(Oc1ccccc1C)c1ccccc1 (configuration not stated) [Methyl-(3-phenyl-3-o-tolyloxy-propyl)-amine(tomoxetine)] | > 10 | > 10 | 6.4

The next compounds have a lower Ki [1] than those just listed; values first:

Row | Ki [1] [µM] | Ki [2] [µM] | Ki (Histamine H1 receptor) [µM] | SMILES
4 | 6.1 | – | > 10 | CN1Cc2c(N)cccc2[C@H](c2ccccc2)C1 [(+/-)-2-Methyl-4-phenyl-1,2,3,4-tetrahydro-isoquinolin-8-ylamine]
5 | 4.6 | 0.32 | 0.031 | CN(C)CCCN1c2ccccc2CCc2ccccc21

Reference: BindingDB's records for PubMed 6123593 (Eli Lilly, 1982)
